Measurements from PubChem BioAssay AID1625 (Sanford-Burnham Center for Chemical Genomics, 2009).
Activity calls are given as the source filed them.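 How the source made its calls: active means z-score above 3 at 5 µM with at least 500 cells counted in the well; inconclusive means wells under 500 cells, flagged as cytotoxic or low count; inactive means the rest.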

Test system: MIN6 insulin promoter-GFP reporter, high-content imaging
Assay: up-regulation of insulin promoter-GFP reporter – imaging, high-content screening, mouse beta cells (AID 1625)

Row | SMILES | EC50
1 | O=C(/C=C/c1c[nH]c2ccccc12)c1c(O)n(CCc2ccccc2)c(=O)[nH]c1=O | > 16 µM (inactive)
2 | O=C1/C(=C/c2ccc(N3CCCC3)cc2)NC(=S)N1C1CC1 | 7.35 µM
3 | Cc1ccc(-c2ccc(/C=C(\C#N)C(=O)Nc3cc(C)nn3-c3ccccc3)o2)cc1 | > 16 µM (inactive)
4 | CCCN1C(=O)/C(=C\C=C2\N(CC)c3ccccc3C2(C)C)SC1=S | > 16 µM (inactive)
5 | N#Cc1c(C(F)(F)F)cc(-c2ccccc2)nc1SCc1nc(N)nc(N2CCOCC2)n1 | 3.73 µM
6 | O=[N+]([O-])c1ccc(N/N=C/c2ccc[nH]2)cc1 | > 16 µM (inactive)
7 | COc1ccc2nc(SCC(C)=O)c(C#N)cc2c1 | 8.2 µM
8 | N#CC1CC(c2ccc([N+](=O)[O-])cc2)=NN1c1ccc([N+](=O)[O-])cc1 (stereo unspecified) | > 16 µM (inactive)
9 | CN1/C(=C\C=C(/C#N)C(=O)Nc2ccc(Cl)cc2)C(C)(C)c2ccccc21 | > 16 µM (inactive)
10 | Cc1cc2c(C(F)(F)F)cc(=O)oc2c2c1NCCC2 | > 16 µM (inactive)
11 | Cc1n[nH]c(C)c1N1C(=O)c2cccc3c(N4CCCCCC4)ccc(c23)C1=O | 9.13 µM
12 | N#C/C(=C/c1ccc(N2CCOCC2)o1)c1nc2ccccc2[nH]1 | 7.76 µM
13 | CN(C)c1ccc(/C=C2\SC(=S)N(Nc3ncc(C(F)(F)F)cc3Cl)C2=O)cc1 | 2.55 µM
14 | CN(C)c1ccc(/C=C2\SC(=O)N(CC(O)Cn3c4ccccc4c4ccccc43)C2=O)cc1 (stereo unspecified) | > 16 µM (inactive)
15 | CCN(CC)c1ccc2cc(-c3nc(-c4ccc(OC)cc4)cs3)c(=O)oc2c1 | < 0.25 µM
16 | CC(=O)c1cc(NC(=O)c2ccc(Cl)cc2)c(=O)oc1/C=C/N(C)C | > 16 µM (inactive)
17 | O=C1c2cccc3c(O)ccc(c23)C(=O)N1Cc1ccco1 | 13.7 µM (inactive)
18 | O=C1S/C(=C\c2ccc(N3CCOCC3)o2)C(=O)N1Cc1c(F)cccc1Cl | 0.976 µM
19 | Cc1ccc(CNc2ccc3c(c2)OCO3)cc1 | > 16 µM (inactive)
20 | CSc1c(C#N)c(N)nc2sc(C(=O)c3ccc(Cl)c(Cl)c3)c(N)c12 | > 16 µM (inactive)
21 | Cc1cc2nc3c(=O)n(C4CCCCC4)c(=O)[nH]c3nc2cc1N | 8.73 µM
